According to US10603265B2, “Skin whitening peptide agents” (INSTITUT CURIE, priority 2014, dated 2020):
“And” between values parts separate entries of the source, which are not always exact repeats. Identical values can stand only once. “Also recorded” adds a separate entry of the source.

How the values were obtained:
[1] = biological target: T1, co-localization of KIF13A with AP-1 (Homo sapiens, UniProt Q9H1H9); experiment: Immunofluorescence colocalization of AP-1 with KIF13A in MNT-1 melanocytes; type: cell-based; conditions: MNT1 melanocytes, 3 days, 10 μM peptide, vs H2O control
T1 construct: endogenous in cells; host or cells: MNT-1 (MNT1) human melanocytic cells
T1 sequence (Q9H1H9 whole entry): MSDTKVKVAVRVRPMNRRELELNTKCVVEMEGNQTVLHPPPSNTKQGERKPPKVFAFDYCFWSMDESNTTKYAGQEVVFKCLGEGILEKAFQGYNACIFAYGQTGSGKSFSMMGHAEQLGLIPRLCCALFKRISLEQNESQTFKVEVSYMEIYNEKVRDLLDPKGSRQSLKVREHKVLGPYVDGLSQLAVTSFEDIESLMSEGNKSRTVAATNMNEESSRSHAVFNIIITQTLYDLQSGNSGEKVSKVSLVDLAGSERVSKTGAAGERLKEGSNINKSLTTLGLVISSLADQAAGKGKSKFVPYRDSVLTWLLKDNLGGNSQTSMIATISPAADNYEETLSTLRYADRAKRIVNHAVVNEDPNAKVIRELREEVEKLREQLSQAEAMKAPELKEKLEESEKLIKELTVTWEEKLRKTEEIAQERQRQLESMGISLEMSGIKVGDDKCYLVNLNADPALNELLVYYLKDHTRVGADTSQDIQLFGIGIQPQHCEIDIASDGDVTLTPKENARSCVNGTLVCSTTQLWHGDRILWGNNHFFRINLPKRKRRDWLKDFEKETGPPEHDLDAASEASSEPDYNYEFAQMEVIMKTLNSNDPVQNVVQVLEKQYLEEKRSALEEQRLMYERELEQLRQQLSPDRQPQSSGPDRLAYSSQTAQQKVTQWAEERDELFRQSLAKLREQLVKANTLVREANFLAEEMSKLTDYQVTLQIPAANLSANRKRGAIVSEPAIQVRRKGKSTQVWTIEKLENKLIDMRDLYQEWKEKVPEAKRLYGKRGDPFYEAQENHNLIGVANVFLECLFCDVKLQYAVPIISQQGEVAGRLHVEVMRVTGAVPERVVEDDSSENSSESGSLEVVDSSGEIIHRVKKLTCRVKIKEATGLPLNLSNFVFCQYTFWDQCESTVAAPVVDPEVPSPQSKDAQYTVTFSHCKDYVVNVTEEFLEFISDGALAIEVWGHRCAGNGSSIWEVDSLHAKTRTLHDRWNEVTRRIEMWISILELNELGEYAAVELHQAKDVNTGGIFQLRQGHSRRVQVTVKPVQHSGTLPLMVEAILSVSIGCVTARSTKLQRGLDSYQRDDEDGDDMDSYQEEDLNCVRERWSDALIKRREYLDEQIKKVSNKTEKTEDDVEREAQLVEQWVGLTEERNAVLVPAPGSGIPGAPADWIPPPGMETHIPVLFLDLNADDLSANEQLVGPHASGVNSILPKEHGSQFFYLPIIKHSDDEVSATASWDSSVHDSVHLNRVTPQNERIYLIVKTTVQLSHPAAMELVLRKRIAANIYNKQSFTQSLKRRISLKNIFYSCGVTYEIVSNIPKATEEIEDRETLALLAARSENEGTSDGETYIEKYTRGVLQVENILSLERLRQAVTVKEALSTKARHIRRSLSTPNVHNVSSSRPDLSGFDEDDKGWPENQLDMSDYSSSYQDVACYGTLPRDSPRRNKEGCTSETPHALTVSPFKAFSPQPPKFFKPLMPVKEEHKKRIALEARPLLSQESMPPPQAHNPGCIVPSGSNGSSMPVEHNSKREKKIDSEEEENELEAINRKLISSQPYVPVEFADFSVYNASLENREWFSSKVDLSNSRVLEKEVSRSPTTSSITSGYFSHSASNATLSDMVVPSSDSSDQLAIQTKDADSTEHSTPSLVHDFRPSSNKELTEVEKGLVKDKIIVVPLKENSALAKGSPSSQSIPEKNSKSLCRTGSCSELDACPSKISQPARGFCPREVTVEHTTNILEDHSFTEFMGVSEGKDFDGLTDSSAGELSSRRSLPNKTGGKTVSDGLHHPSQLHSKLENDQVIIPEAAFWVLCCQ
Experimental: FIG. 5: MNT1 melanocytes were seeded on glass coverslips and cultured 3 days with 10 μM of QK-5 peptide (SEQ ID NO: 16) or H2O as a control. Cells were fixed in cold methanol and co-stained using a rabbit anti-human KIF13A and a mouse anti-human γ-adaptin as primary antibodies and goat anti-rabbit or mouse coupled to Alexa-488 or 546 (Molecular Probes). Coverslips were mounted in Dabco (Invitrogen) medium and images were acquired on an Eclipse 80i Upright Microscope (Nikon) and deconvoluted. Images are maximum-intensity z projections of up to 15 3D image stacks acquired using ImageJ software. Analysis was performed by quantifying the intensity of overlapping KIF13A and AP-1 pixels and by normalizing them to the control. QK-5 peptide incubation on melanocytes decreased about 84±7% the co-localization of KIF13A with AP-1. Data are presented as mean±standard deviation. ***; p value (two tailed)<0.001.
MNT-1 cells grown on coverslips were incubated for three days in medium containing 10 μg of peptides. Coverslips were rinsed in PBS, fixed in 100% cold methanol for 30 sec, followed by incubation in PBS and 1 mg/ml BSA. […]
Colocalization analysis was performed using ImageJ software. […] Then identical area inside cells were defined and analyzed for quantification.

[2] = tested on: MNT-1 cells; experiment: Electron microscopy, grading of melanosome stages in MNT-1 cells; type: cell-based, human; conditions: MNT1 melanocytes, 3 days, 10 μM peptide, vs H2O control
Experimental: FIG. 6: MNT1 melanocytes were seeded on glass coverslips and cultured 3 days with 10 μM of QK-5 peptide (SEQ ID NO: 16; bottom panel) or H2O (top panel) as a control. Then cells were rapidly washed in DMEM at room temperature and fixed for 90 min with a mixture of 2.5% glutaraldehyde in 0.1 M cacodylate buffer for 90 min at 4° C., post-fixed with 1% OsO4/1.5% potassium ferrocyanide 45 min at 4° C., dehydrated in ethanol and embedded in Epon resin. Ultrathin (60-70 nm) sections were observed under a CM120 electron microscope (FEI company, Eindoven), equipped with a KeenView camera (Soft Imaging System; SIS, Germany). […] Scale bar: 2 μm.
FIG. 7: Melanosome stages were quantified based on their morphologies on MNT1 melanocytes treated as in FIG. 6. Stages I and II correspond to early non-pigmented melanosomes, melanin pigmentation is initiated in stage III, whereas stage IV is a fully mature and pigmented melanosome. Stages were counted and plotted as percentage of their total number.
Control and peptide-treated MNT-1 cells grown on coverslips for 3 days were fixed with 2.5% glutaraldehyde in 0.1M cacodylate buffer, pH 7.2 post-fixed with 1% OsO4 supplemented with 1.5% Potassium ferrocyanure, dehydrated in ethanol, and embedded in epon. Ultrathin sections were prepared with an Ulltracut UCT ultramicrotome (Leica) and observed under a CM120 electron microscope (FEI company, Eindoven) after counter-staining with uranyl acetate and lead citrate.
Grading of melanosomes stages from I to IV, based on morphology and melanin content, were done independently by two authors. The table below presents the criteria of analyses.

[3] = biological target: T2, AP-1/KIF13A interaction (Homo sapiens, UniProt Q9H1H9); experiment: AP-1 immunoprecipitation / KIF13A western blot, MNT-1 melanocyte lysates incubated with peptides; type: biochemical; conditions: MNT-1 melanocytic cell lysates, 1 μg peptide, KIF13A/AP-1 band intensity normalized to control
T2 construct: endogenous in cells; host or cells: MNT-1 (MNT1) human melanocytic cells
T2 sequence (Q9H1H9 whole entry): as above
Experimental: FIG. 2: γ-adaptin subunit of the human AP-1 complex was immunoprecipitated from melanocytes (MNT1) cell lysates in presence or not of 1 μg of the indicated peptides (peptides SS-5, EK-11 and QK-5: SEQ ID NO: 28, 1 and 16, respectively) for 2 h at 4° C. under rotation. […] EK-11 and SS-5 peptides were used as a positive and negative controls, respectively. Molecular weight in kDa.
FIG. 3: Intensity of the immunoprecipitated KIF13A and AP-1 bands shown in FIG. 2 were quantified using ImageJ. KIF13A intensity were divided by its corresponding AP-1 intensity and normalized to the control (lysates incubated without peptides, first lane).
Cells at 80% of confluency were washed in cold PBS and lysed on ice in lysis buffer (50 mM Tris, 150 mM NaCl, 0.1% Triton X-100, 10 mM EDTA, pH 7.2, and protease inhibitor cocktail, Roche). Lysates were incubated overnight with 1 μg of peptides. Lysates were first precleared using protein G agarose beads for 1 h at 4° C. under rotation. Supernatants were collected and incubated with protein G agarose beads with 1 μg mouse monoclonal IgG2b anti-CD9 for 1 h at 4° C. under rotation. Precleared supernatants were incubated with beads coated earlier with 1 μg mouse monoclonal IgG2b anti-γ-adaptin for 2 h at 4° C. under rotation. As negative control, 1 μg mouse monoclonal IgG2b anti-CD9 was used to immunoprecipitate the lysate. […]

[4] = biological target: T3, interaction of human AP-1 with human KIF13A (Homo sapiens, UniProt Q9H1H9); experiment: AP-1 immunoprecipitation / KIF13A western blot, HeLa cell lysates incubated with peptides; type: biochemical; conditions: 1 μg peptide, vs control without peptide
T3 construct: incubating independently g of each 12 peptides with HeLa cell lysates (non pigmented cells); endogenous in cells; host or cells: HeLa cell lysate
T3 sequence (Q9H1H9 whole entry): as above
Experimental: FIG. 1: γ-adaptin subunit of the human AP-1 complex was immunoprecipitated from HeLa cell lysates in presence or not of 1 μg of the indicated 11 amino acids peptides (peptides AI, QT, GN, EK, EL, WQ; NY, QF, LM, FF, LK and RI: SEQ ID NO: 17, 28, 20, 1, 25, 27, 22, 21, 24, 23, 19 and 26, respectively) for 2 h at 4° C. under rotation. […] Molecular weight in kDa.
Cells at 80% of confluency were washed in cold PBS and lysed on ice in lysis buffer (50 mM Tris, 150 mM NaCl, 0.1% Triton X-100, 10 mM EDTA, pH 7.2, and protease inhibitor cocktail, Roche). Lysates were incubated overnight with 1 μg of peptides. Lysates were first precleared using protein G agarose beads for 1 h at 4° C. under rotation. Supernatants were collected and incubated with protein G agarose beads with 1 μg mouse monoclonal IgG2b anti-CD9 for 1 h at 4° C. under rotation. Precleared supernatants were incubated with beads coated earlier with 1 μg mouse monoclonal IgG2b anti-γ-adaptin for 2 h at 4° C. under rotation. As negative control, 1 μg mouse monoclonal IgG2b anti-CD9 was used to immunoprecipitate the lysate.
After five washes in cold lysis buffer and three washes in PBS, immunoprecipitated proteins bound to the beads were incubated in sample buffer with reducing agent, boiled for 10 min at 95° C., and fractionated by SDS-PAGE using Nupage (3-8%) Tris-acetate gels (Invitrogen). […]

[5] = tested on: 3D human reconstructed pigmented epidermis; experiment: Melanin assay on reconstructed human pigmented epidermis; type: cell-based; conditions: 10 days, 30 μM peptide, OD 492 nm, normalized to control
Experimental: FIG. 10: Melanin quantitation on 3D human reconstructed pigmented epidermis incubated 10 days with 30 μM of QA-3 peptides or AK-3 peptides. Synthetic epidermis were removed from their insert and dissolved in 400 μl of Solvable (Perkin Elmer) for 1 h at 100° C. Melanin quantification was performed on 200 μl by measuring the optical density at 492 nm. Melanin quantifications were normalized to the control. Both QA-3 and AK-3 peptides decreased about 22.5±13% or 21±10% the melanin production by synthetic skin epidermis. Data are presented as mean±standard deviation. *; p value (two tailed)<0.1.
Reconstructed human epidermal of phototype VI (Sterlab) were received at day 10 and incubated with the manufacturer's growth medium supplemented from day 11 to day 21 with 30 μg of peptides. As recommended, medium was changed every day. At day 21, the epidermis was separated from the insert, digested by incubation in 400 μl of Solvable (PerkinElmer) at 98° C. for 1 h. Melanin content was measured as optical density at 492 nm.

[6] = tested on: MNT-1 cells; experiment: Melanin assay on MNT-1 cells; type: cell-based, human; conditions: MNT1 melanocytes, 3 days, 10 μM peptide, OD 492 nm, normalized to H2O control
Experimental: FIG. 4: MNT1 melanocytes were cultured 3 days with 10 μM of QK-5 peptide (SEQ ID NO: 16) or H2O as a control. Melanin estimation was performed as previously described (Delevoye et al., J Cell Biol. 2009 Oct. 19; 187(2):247-64), and normalized to the control. QK-5 peptide incubation decreased the intracellular melanin content about 40±0.02%. Data are presented as mean±standard deviation. *; p value (two tailed)<0.05.
The skin whitening activity of the peptide may further be determined by measuring the melanin content of melanocytic cells such as MNT-1 cells, incubated with the peptide. For example, the assay may be carried out as follow: at day 1, 10^5 MNT-1 cells are seeded in 6-well plates; From day 2 to day 4, cells are grown in medium comprising 10 μM of peptides; at day 5, cells are disrupted by sonication in 50 mM Tris-HCl, pH 7.4, 2 mM EDTA, 150 mM NaCl, 1 mM dithiothreitol, and protease inhibitors. Pigment is pelleted at 20,000 g for 15 min at 4° C., rinsed once in ethanol/ether (1:1), and dissolved in 2 M NaOH/20% dimethylsulfoxide at 60° C.; Melanin content is measured as optical density at 492 nm.
At day 1, 10^5 cells were seeded in 6-well plates. From day 2 to day 4, cells were grown in medium containing 1 or 10 μg of peptides. Medium was changed every day. […] Melanin content was measured as optical density at 492 nm.

decrease of the colocalization of KIF13A with AP-1 [1]	decrease of the AP-1/KIF13A interaction [3] [%]	decrease of the interaction of AP-1 with KIF13A [4]	Substance	early melanosome Stages (I and II) [2]	number of Stage III melanosomes [2]	number of Stage IV (fully mature pigmented) melanosomes [2]	decrease of melanin production / pigmentation of reconstructed epidermis [5] [%]	decrease of the intracellular melanin content [6]
about 84±7%	56.1±6		QVAVK (listed as Homo sapiens) [QK-5]	without affecting the early Stages (I and II)	increased their number of Stage III; also recorded: increased the number of less mature and pigmented stages III	decreased their number of Stage IV melanosomes; also recorded: fewer dark-pigmented granules; also recorded: decreased the number of stage IV melanosomes		
	57.5±8	about 52.6±7%	EPLNNLQVAVK (listed as Homo sapiens) [EK-11]					
			AVK [AK-3]				21±10	22±8% and ~21.3±8%
